Reference: patent US20240182475A1 (Université de Lausanne, priority 2021, published 2024)
One block for each compound: values may come before it.

Legend:
[1] = target: T1, recombinant human CSE (hCSE) (Homo sapiens, UniProt P32929); test: High-throughput screening pyruvate assay for CSE activators; format: biochemical; conditions: 5 μM; % of pyruvate generated over hCSE alone
T1 construct: purchased ProteoGenix, France
Protocol: The chemical reactions involved in the 2 step assay are depicted. In (a) recombinant human CSE (hCSE) is incubated with L-cysteine, generating H2S and pyruvate. In (b) pyruvate is oxidized by pyruvate oxidase (PDX) to generate acetate, carbon dioxide (CO2) and hydrogen peroxide (H2O2). H2O2 then reacts with Amplex Red in a 1:1 stoichiometry to form the red fluorescent product, resorufin. (c) hCSE-dependent pyruvate measurement without enzyme (no pyruvate production), with the specific CSE inhibitor AVG 5 μM (inhibition of pyruvate production) and with the CSE activator calmodulin 5 μM (increased pyruvate production). Results were expressed as the % of pyruvate generated over hCSE alone. (d) Chemical structure of the new small molecule CSE activator SU004. (e) CSE-dependent pyruvate upon incubation of hCSE with L-cysteine and with increasing concentration of SU004. The ability of SU004 to activate hCSE was calculated as % of normalized activity.
We therefore hypothesized that potential CSE activators could counter these effects and be of therapeutic value in musculoskeletal HC. We set up a screening assay with human recombinant CSE (hCSE) and L-Cysteine as substrate, using as read-out the production of pyruvate as a surrogate of H2S production. As expected, pyruvate was detected only in presence of hCSE. […]

[2] = test system: WT murine primary chondrocytes; test: Murine primary chondrocyte calcification (Alizarin red); format: cell-based, mouse
Protocol: (a) WT and Cse-deficient chondrocytes were incubated with a CSE activator (SU004, 50 μM) previously identified by high-through put screen, or with the equivalent volume of DMSO (0.1%) for 24 hours in calcification medium. STS 25 mM was used as a positive control for calcification inhibition. Calcium-containing crystals were stained with Alizarin red and quantified. (b) Cytotoxicity was assessed by LDH measurement and expressed as % over 100% cytotoxicity. (c) IL-6 secretion was measured by ELISA in supernatant of WT chondrocytes incubated with SU004 50 μM or STS 25 mM for 24 hours in calcification medium. (d) Primary human chondrocytes from 3 OA patients (P1, P2, P3) were incubated with SU004 50 μM, or with the equivalent volume of DMSO (0.1%) for 24 hours in calcification medium. Calcium-containing crystals were stained with Alizarin red and quantified. (e) Cytotoxicity was assessed by LDH measurement and expressed as % over 100% cytotoxicity. (f) IL-6 secretion was measured by ELISA in supernatant of human chondrocytes incubated for 24 hours with SU004 50 μM in calcification medium. *p<0.05, ** p<0.01, ****p<0.0001.
Primary murine chondrocytes were stimulated with secondary calciprotein particles (sCPP) for 24 h in DMEM+10% FBS in presence of C5 or C6 at 50 uM or vehicle (DMSO). Mineralization was analyzed by Alizarin red staining of the cells (A) and quantified (B). Statistical analysis was determined using one-way ANOVA with **p<0.01 and ***p<0.001.
Chondrocytes were isolated from 6 days old mice (Cse KO, Cse tg, Cbs KO and corresponding WT mice) as described previously (Nasi, So, et al. 2016). Tenocytes were isolated from 6 to 8 weeks old mice (Cse KO and WT) and by double digestion in Collagenase IV NB standard grade (Witec AG). […]
After incubation in calcification media, supernatant was collected for ELISA and LDH measurement, and cell monolayer was washed in PBS, fixed in 10% formol and crystal deposition analyzed through Alizarin red staining and quantified as previously described

[3] = test system: ATDCS chondrocytes; test: ATDCS chondrocyte mineralization (Alizarin red); format: cell-based; conditions: sCPP 24 h, different concentrations
Protocol: Alizarin red staining of ATDCS chondrocytes stimulated with sCPP for 24 h in DMEM+10% FBS in presence of different concentrations of compounds C5 and C6. The graphs show Alizarin red absorbance at 570-630 nm. Statistical analysis (in comparison to 0) was determined using one-way ANOVA with *p<0.05, **p<0.01, ***p<0.001, […].

[4] = test system: MOVAS cells; test: MOVAS cell calcification assay (Alizarin red); format: cell-based, mouse
Protocol: A) Alizarin red staining of MOVAS cells stimulated with sCPP for 24 h in DMEM+10% FBS and treated or not with 50 uM of compounds. […] Statistical analysis was determined using one-way ANOVA with ***p<0.001. C) Percentage of cytotoxicity (LDH %) in MOVAS treated or not with compounds for 24 h. D) MOVAS cells were seeded onto half-area 96-well plate and incubated overnight. Then C5 or C6 at 50 uM or vehicle (DMSO), L-cysteine at 10 mM, PLP at 5 uM and the H2S sensitive fluorescent probe AzMC at 10 μM were added. The fluorescence was immediately measured in kinetic mode for 2 h at 37° C. with SpectraMax M5 reader, with excitation and emission wavelengths of 365 nm and 450 nm, respectively.
A) Alizarin red staining of Movas cells stimulated with sCPP for 24 h in DMEM+10% FBS and treated or not with 50 uM of Z20. […] C) Percentage of cytotoxicity (LDH %) in murine chondrocytes treated or not with Z20 for 24 h. Statistical analysis was determined using one-way ANOVA with ***p<0.001.
Alizarin red staining of MOVAS cells stimulated with sCPP for 24 h in DMEM+10% FBS and treated or not with different concentrations of compounds (A: C6) and (B: Z20). The graphs show Alizarin red absorbance at 570-630 nm. Statistical analysis was determined using one-way ANOVA with *p<0.05, **p<0.01, ***p<0.001.
CPP were generated by preparing 20 ml DMEM containing 10% FBS, 1 mmol/L CaCl2, 3.5 mmol/L inorganic phosphate (1.36 mmol/L NaH2PO4 and 2.14 mmol/L Na2HPO4) (Aghagolzadeh et al. Atherosclerosis, 2016). After 7 days incubation at 37° C., the suspension was centrifuged at 25000 g for 2 h at 4° C., and the pellet containing CPP was resuspended in 1 ml DMEM and stored at −20° C. until further use.
Mouse vascular smooth muscle cell line (MOVAS) cells were cultured according to the manufacturer's guidelines in DMEM culture medium supplemented with 10% FBS. Cells were cultured at 37° C. in a humidified atmosphere with 5% CO2. All cell culture experiments in 96-well plates were performed in triplicates and were repeated independently two times.
For calcification experiments, cells were seeded in 96-well plates at a density of 50,000 cells/well and left to attach for 18 h. Calcification of cell monolayers was induced by CPP (equivalent to 50 μg Ca/mL) for 24 h at 37° C., 5% CO2 in presence of various concentrations of compounds (all in final 0.1% DMSO), or of 0.1% DMSO as a control, to reach a final volume of 200 μl/well. Calcium deposition was assessed by 0.5% w/v Alizarin Red staining (pH 4.2). Briefly, after PBS washing, methanol fixation for 10 min at 4° C., and milli-Q water washing, cells were incubated for 60 min with 200 μL Alizarin Red solution and then washed four times with milli-Q water. Quantification was performed after crystal dissolution with cetylpyridinium chloride (10%) for 18 h. The absorbance was measured at 570 and 630 nm using the Spectramax M5e reader (Molecular Devices). The background (alizarin red staining obtained with cells in the absence of CPP) was subtracted from all values.

[5] = test system: MOVAS cells; test: Cytotoxicity assay, LDH release; format: cell-based, mouse; conditions: at 50 uM
Protocol: A) Alizarin red staining of MOVAS cells stimulated with CPP for 24 h in DMEM+10% FBS in presence of different concentrations of compound 22401. […] The background (Alizarin red staining obtained with cells in the absence of CPP) was subtracted from all values. B) Percentage of cytotoxicity, as measured by LDH release, in MOVAS cells in the same conditions as A). Statistical analysis was determined using one-way ANOVA with *p<0.05, **p<0.01, ***p<0.001.
Measurement of lactate dehydrogenase (LDH) as a means of cytotoxicity assay was performed with using CytoTox-ONE Homogeneous Membrane Integrity Assay (Promega) according to the manufacturer's instructions. Values were calculated as percentage of cytotoxicity using the following formula: [(value in sample)−(background)]/[(value in Triton X-100-treated sample)−(background)]×100.

T1 sequence (P32929 whole entry): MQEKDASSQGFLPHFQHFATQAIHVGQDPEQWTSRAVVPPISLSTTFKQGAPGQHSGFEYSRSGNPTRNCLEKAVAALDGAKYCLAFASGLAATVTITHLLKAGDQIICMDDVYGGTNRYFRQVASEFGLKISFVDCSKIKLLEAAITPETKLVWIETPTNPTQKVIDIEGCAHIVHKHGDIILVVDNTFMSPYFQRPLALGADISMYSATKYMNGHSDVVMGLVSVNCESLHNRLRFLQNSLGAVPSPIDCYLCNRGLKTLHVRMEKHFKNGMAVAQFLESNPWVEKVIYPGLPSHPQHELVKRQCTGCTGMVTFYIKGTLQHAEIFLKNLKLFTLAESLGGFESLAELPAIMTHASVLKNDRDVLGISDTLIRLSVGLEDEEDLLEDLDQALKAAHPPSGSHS

hCSE-dependent pyruvate production [1]: almost complete inhibition
Compound: NCCO/C=C/C(N)C(=O)O (stereo not drawn) [AVG]

Compound: N[C@@H](CCS)C(=O)O [homocysteine, reference compound]
Calcification ([2]; WT chondrocytes incubated with 100 μM or 25 μM): significantly decreased

Compound: N-{1-[(pyridin-2-yl)methyl]-1H-pyrazol-4-yl}benzamide [Compound 12]
Mineralization (Alizarin red) ([2]; sCPP 24 h, DMEM+10% FBS, 50 uM): inhibit primary murine chondrocyte mineralization
Mineralization (Alizarin red absorbance 570-630 nm) [3]: inhibit ATDCS mineralization in vitro in a dose dependent fashion
Calcification assay Max calcification inhibition (%) at the indicated dose of compound (uM) ([4]; at 50 uM): 43% at
Mineralization (Alizarin red) ([4]; sCPP 24 h, 50 uM): inhibit murine vascular smooth muscle cells (MOVAS cells) mineralization
Mineralization (Alizarin red absorbance 570-630 nm) ([4]; sCPP 24 h, different concentrations): Dose-dependent effect
Cytotoxicity assay LDH release (% of cytotoxicity) [5]: 13% at

hCSE-dependent pyruvate production [1]: pyruvate up-modulation
Compound: calmodulin
